Read-outs that look alike come from different tables or passages of the source. Residues, ends and D or L forms follow the SMILES beside them.
How the values were obtained:
SARS-CoV-2 Mpro [1] = molecular target: T1, SARS-CoV-2 Mpro (Severe acute respiratory syndrome coronavirus 2, UniProt P0DTD1); test: Dose validation assay (10-point dose-response), fluorescent Mpro protease assay with Ac-Abu-Tle-Leu-Gln-AFC; format: biochemical; conditions: for IC50 / Hill Slope: 80nM Mpro, 32μM Ac-Abu-Tle-Leu-Gln-AFC, n = 3, 4-parameter nonlinear regression; for IC50: 10 concentrations 150 μM to 7.6 nM
SARS-CoV-2 Mpro [2] = molecular target: T1, SARS-CoV-2 Mpro; format: biochemical
HCV protease = conditions: cited from earlier work
SARS-CoV-2 = conditions: cellular model of viral replication; read-out: EC50, SARS-CoV-2 antiviral activity; cited from earlier work
NS3 protease variants = conditions: HCV NS3 single amino acid mutations; cited from earlier work
Covid-19 patients = test system: Covid-19 patients; design: method as in PMID 32445440; conditions: cohort of 1062 patients, placebo control 15 days; cited from earlier work
[3] = Z-score in the protease inhibition assay, ΔRFU at 10 minutes, 50 μM compound, substrate not stated

## O=c1c2ccccc2[se]n1-c1ccccc1 [Ebselen]
SARS-CoV-2 Mpro [1]; result in words, S1 Fig
  dose response against Mpro cleavage of substrate Ac-Abu-Tle-Leu-Gln-AFC: failed to show a significant dose response

## CCOC(=O)c1ccc(N2NC(=O)/C(=C/c3ccc([N+](=O)[O-])o3)C2=O)cc1 [PYR-41]
SARS-CoV-2 Mpro [1]
  IC50: 17.4 µM
  Hill Slope: 0.9933

## C[C@H](NC(=O)[C@@H](Cc1c[nH]c2ccccc12)NC(=O)[C@@H](N)Cc1cnc[nH]1)C(=O)N[C@@H](Cc1c[nH]c2ccccc12)C(=O)N[C@H](Cc1ccccc1)C(=O)N[C@@H](CCCCN)C(N)=O [U-75799E] (HELM PEPTIDE1{H.[dW].A.W.[dF].K.[am]}$$$$V2.0)
SARS-CoV-2 Mpro [2]
  Z10: 1.044

## OC[C@H]1O[C@H]([S-])[C@H](O)[C@@H](O)[C@@H]1O.[Au+] [aurothioglucose]
SARS-CoV-2 Mpro [1]
  IC50: 13.3 µM
  Hill Slope: 1.496

## CC(C)(C)NC(=O)N[C@H](C(=O)N1C[C@H]2[C@@H]([C@H]1C(=O)NC(CC1CCC1)C(=O)C(N)=O)C2(C)C)C(C)(C)C (stereo partly shown) [boceprevir]
HCV protease
  IC50: < 0.09 µM
SARS-CoV-2 Mpro [1]
  Hill Slope: 0.4123
SARS-CoV-2 Mpro [1]; ~1 μM for Mpro versus below 90 nM for HCV protease
  reduction in potency against enzymatic activity, SARS-CoV-2 Mpro compared to HCV protease: 10 fold
SARS-CoV-2
  EC50: 1.95 ± 1.62 µM
NS3 protease variants
  reduction in activity caused by single amino acid mutations: up to 120 fold

## CCCC[C@@H](C=O)NC(=O)[C@H](CC(C)C)NC(=O)OCc1ccccc1 [calpeptin]
SARS-CoV-2 Mpro [1]
  Hill Slope: 1.009

## COc1ccc2c(O[C@@H]3C[C@H]4C(=O)N[C@]5(C(=O)O)C[C@H]5/C=C\CCCCC[C@H](NC(=O)OC5CCCC5)C(=O)N4C3)cc(-c3csc(NC(C)C)n3)nc2c1 [ciluprevir]
SARS-CoV-2 Mpro [1]
  IC50: 20.8 µM
  Hill Slope: 1.133

## CC(=O)N(CC(O)CN(C(C)=O)c1c(I)c(C(=O)NCC(O)CO)c(I)c(C(=O)NCC(O)CO)c1I)c1c(I)c(C(=O)NCC(O)CO)c(I)c(C(=O)NCC(O)CO)c1I (stereo not shown) [iodixanol]
SARS-CoV-2 Mpro [2]; [3]
  Z10: -0.9551

## CCCC[C@H](NC(=O)[C@@H]1[C@@H]2[C@H](CN1C(=O)[C@@H](NC(=O)NC1(CS(=O)(=O)C(C)(C)C)CCCCC1)C(C)(C)C)C2(C)C)C(=O)C(=O)NC1CC1 [narlaprevir]
SARS-CoV-2 Mpro [1]
  Hill Slope: 0.9106

## CCC(CC)COC(=O)[C@H](C)N[P@](=O)(OC[C@H]1O[C@@](C#N)(c2ccc3c(N)ncnn23)[C@H](O)[C@@H]1O)Oc1ccccc1 [remdesivir]
Covid-19 patients
  period of recovery: 10 days

## CCC[C@H](NC(=O)[C@@H]1[C@H]2CCC[C@H]2CN1C(=O)[C@@H](NC(=O)[C@@H](NC(=O)c1cnccn1)C1CCCCC1)C(C)(C)C)C(=O)C(=O)NC1CC1 [telaprevir]
SARS-CoV-2 Mpro [1]
  Hill Slope: 1.062

## dalargin
SARS-CoV-2 Mpro [2]; [3]
  Z10: -1.032

## desmopressin-acetate
SARS-CoV-2 Mpro [2]; [3]
  Z10: -0.4942

## hemin
SARS-CoV-2 Mpro [1]
  IC50: 9.68 µM
  Hill Slope: 1.354

Source: PMC7850479, “A drug repurposing screen identifies hepatitis C antivirals as inhibitors of the SARS-CoV2 main protease” (PLoS ONE, 2021)
